# Experimental data: PubChem BioAssay AID1259407 (Chemical Carcinogenesis Research Information System (CCRIS), 2018)
# Calls of active or inactive are those of the source. The rule behind the calls is not given here.
# System: CCRIS mutagenicity, Ames/micronucleus/aberration tests
# Assay: CCRIS mutagenicity studies
# Details: Test System: AMES SALMONELLA TYPHIMURIUM
# [1] = Strain/Indicator: TA98, Metabolic Activation: NONE, Method: STANDARD PLATE
# [2] = Strain/Indicator: TA98, Metabolic Activation: RAT, LIVER, S-9, AROCLOR 1254, Method: STANDARD PLATE
# [3] = Strain/Indicator: TA100, Metabolic Activation: NONE, Method: STANDARD PLATE
# [4] = Strain/Indicator: TA100, Metabolic Activation: RAT, LIVER, S-9, AROCLOR 1254, Method: STANDARD PLATE
# [5] = Strain/Indicator: TA1535, Metabolic Activation: NONE, Method: STANDARD PLATE
# [6] = Strain/Indicator: TA98, Metabolic Activation: S-9, Method: STANDARD PLATE
# [7] = Strain/Indicator: TA100, Metabolic Activation: S-9, Method: STANDARD PLATE
# [8] = Strain/Indicator: TA98, Metabolic Activation: NONE, Method: PREINCUBATION
# [9] = Strain/Indicator: TA100, Metabolic Activation: NONE, Method: PREINCUBATION
structure (smiles),measurement,setting,value
COc1c(N)cc(C)c(N)c1C,mutagenic call,[1],inactive; negative
same,mutagenic call,[2],inactive; negative
same,mutagenic call,[3],inactive; negative
same,mutagenic call,[4],inactive; negative
same,mutagenic call,[5],inactive; negative
same,mutagenic call,"Strain/Indicator: TA1535, Metabolic Activation: RAT, LIVER, S-9, AROCLOR 1254, Method: STANDARD PLATE",inactive; negative
same,mutagenic call,"Strain/Indicator: TA1537, Metabolic Activation: NONE, Method: STANDARD PLATE",inactive; negative
same,mutagenic call,"Strain/Indicator: TA1537, Metabolic Activation: RAT, LIVER, S-9, AROCLOR 1254, Method: STANDARD PLATE",inactive; negative
same,mutagenic call,"Strain/Indicator: TA1538, Metabolic Activation: NONE, Method: STANDARD PLATE",inactive; negative
same,mutagenic call,"Strain/Indicator: TA1538, Metabolic Activation: RAT, LIVER, S-9, AROCLOR 1254, Method: STANDARD PLATE",inactive; negative
COc1c2c(cc3oc4c(CCC(C)(C)O)ccc(O)c4c(=O)c13)O[C@H]1OC=C[C@@H]21,mutagenic call,[1],active; positive
same,mutagenic call,[2],active; positive
same,mutagenic call,[3],inactive; negative
same,mutagenic call,[4],active; positive
c1ccc2sc(SN3CCOCC3)nc2c1,mutagenic call,[1],inactive; negative
same,mutagenic call,[6],inactive; negative
same,mutagenic call,[3],inactive; negative
same,mutagenic call,[7],inactive; negative
O=[N+]([O-])c1ccc2c(c1)Oc1ccccc1O2,mutagenic call,"Strain/Indicator: TA98(1,8-DNP6), Metabolic Activation: NONE, Method: PREINCUBATION",active; positive
same,mutagenic call,"Strain/Indicator: TA98(1,8-DNP6), Metabolic Activation: NONE, Method: SUSPENSION",active; positive
same,mutagenic call,"Strain/Indicator: TA98(1,8-DNP6), Metabolic Activation: RAT, LIVER, S-9, PCB (5%), Method: PREINCUBATION",active; positive
same,mutagenic call,"Strain/Indicator: TA98(NR), Metabolic Activation: NONE, Method: SUSPENSION",inactive; negative
same,mutagenic call,"Strain/Indicator: TA98(NR), Metabolic Activation: RAT, LIVER, S-9 (15%), Method: PREINCUBATION",active; positive
same,mutagenic call,"Strain/Indicator: TA98(NR), Metabolic Activation: RAT, LIVER, S-9, 3-METHYLCHOLANTHRENE (15%), Method: PREINCUBATION",active; positive
same,mutagenic call,"Strain/Indicator: TA98(NR), Metabolic Activation: RAT, LIVER, S-9, BETA-NAPHTHOFLAVONE (15%), Method: PREINCUBATION",active; positive
same,mutagenic call,"Strain/Indicator: TA98(NR), Metabolic Activation: RAT, LIVER, S-9, PCB (5 OR 15%), Method: PREINCUBATION",active; positive
same,mutagenic call,"Strain/Indicator: TA98(NR), Metabolic Activation: RAT, LIVER, S-9, PHENOBARBITAL (15%), Method: PREINCUBATION",active; positive
same,mutagenic call,[8],active; positive
same,mutagenic call,[1],active; positive
same,mutagenic call,"Strain/Indicator: TA98, Metabolic Activation: NONE, Method: SUSPENSION",active; positive
same,mutagenic call,"Strain/Indicator: TA98, Metabolic Activation: RAT, LIVER, S-9, AROCLOR, Method: STANDARD PLATE",active; positive
same,mutagenic call,"Strain/Indicator: TA98, Metabolic Activation: RAT, LIVER, S-9, PCB (5%), Method: PREINCUBATION",active; positive
same,mutagenic call,"Strain/Indicator: TA98, Metabolic Activation: RAT, LIVER, S-9, PCB, Method: SUSPENSION",active; positive
same,mutagenic call,[9],inactive; negative
same,mutagenic call,[3],active; positive
same,mutagenic call,"Strain/Indicator: TA100, Metabolic Activation: NONE, Method: SUSPENSION",inactive; negative
same,mutagenic call,"Strain/Indicator: TA100, Metabolic Activation: RAT, LIVER, S-9, AROCLOR, Method: STANDARD PLATE",active; positive
same,mutagenic call,"Strain/Indicator: TA100, Metabolic Activation: RAT, LIVER, S-9, PCB (5%), Method: PREINCUBATION",inactive; negative
same,mutagenic call,"Strain/Indicator: TA100, Metabolic Activation: RAT, LIVER, S-9, PCB, Method: SUSPENSION",inactive; negative
Cn1c(N)nc2c3ccncc3ccc21,mutagenic call,[2],active; positive
Nc1ncnc2c1ncn2/C=C/C=O,mutagenic call,"Strain/Indicator: HISD3052, Metabolic Activation: NONE, Method: STANDARD PLATE",active; positive
CCOP(=S)(OCC)SCSCC,mutagenic call,"Strain/Indicator: TA97A, Metabolic Activation: NONE, Method: STANDARD PLATE",inactive; negative
same,mutagenic call,"Strain/Indicator: TA97A, Metabolic Activation: PLANT, HOMOGENATE, S-14, Method: STANDARD PLATE",inactive; negative
same,mutagenic call,"Strain/Indicator: TA97A, Metabolic Activation: S-9, Method: STANDARD PLATE",inactive; negative
same,mutagenic call,[8],inactive; negative
same,mutagenic call,[1],inactive; negative
same,mutagenic call,"Strain/Indicator: TA98, Metabolic Activation: PLANT, HOMOGENATE, S-14, Method: STANDARD PLATE",inactive; negative
same,mutagenic call,[6],inactive; negative
same,mutagenic call,[9],inactive; negative
same,mutagenic call,[3],inactive; negative
same,mutagenic call,"Strain/Indicator: TA100, Metabolic Activation: PLANT, HOMOGENATE, S-14, Method: STANDARD PLATE",inactive; negative
same,mutagenic call,[7],inactive; negative
same,mutagenic call,[5],inactive; negative
same,mutagenic call,"Strain/Indicator: TA1535, Metabolic Activation: PLANT, HOMOGENATE, S-14, Method: STANDARD PLATE",inactive; negative
same,mutagenic call,"Strain/Indicator: TA1535, Metabolic Activation: S-9, Method: STANDARD PLATE",inactive; negative
